# Values of other authors in patent US20070232656A1, “Pharmaceutical Composition And Method For Treating Neurodegenerative Disorders” (Myriad Genetics, Incorporated, priority 2004, published 2007).
# Read-outs that look alike come from different tables or passages of the source.
# Columns and labels:
# Aβ42 [1] = conditions: CHO cells
# [2] = 50 mg and 100 mg doses, human subjects
# Aβ42 [3] = conditions: transgenic mouse model
# [4] = for efficacy for treating AD: clinical trials in AD patients (rofecoxib at 25 mg daily)
# [5] = in vivo Alzheimer's disease excitotoxic model system
# [6] = patients having mild cognitive impairment
smiles,measurement,setting,value
C[C@@H](C(=O)O)c1ccc(-c2ccccc2)c(F)c1 [(R)-2-(2-fluoro-4-biphenylyl)propionic acid],lowering of Aβ42,Aβ42 [1],lower Aβ42
same,inhibition of COX activity,COX,negligibly inhibits COX activity
same,analgesic effect,[2],produced an analgesic effect
same,lowering of Aβ42,Aβ42 [3],lower Aβ42
COc1ccc2cc([C@H](C)C(=O)O)ccc2c1 [Naproxen],efficacy for treating AD,[4],failed to show efficacy
CC12CC3CC(C)(C1)CC(N)(C3)C2 [memantine],efficacy in treating mild-to-moderate AD,[4]; mild-to-moderate AD,showed efficacy
CS(=O)(=O)c1ccc(C2=C(c3ccccc3)C(=O)OC2)cc1 [rofecoxib],neuroprotection,[5],provides neuroprotection
same,prevention of the development of Alzheimer's disease,[6],failed to prevent the development of Alzheimer's disease
same,patients who developed AD,[6]; 4.5% for placebo,6.4%
same,efficacy for treating AD,[4],failed to show efficacy
